Experimental data: patent US20100137313A1 (ASTRAZENECA AB, priority 2008, published 2010)

What follows are compounds tested against S. pneumoniae Topoisomerase IV ATPase (ParE) (Streptococcus pneumoniae serotype 4, UniProt Q59961) (assay: S. pneumoniae Topoisomerase IV ATPase inhibition). Details: values marked * are an average of two or more data points, read-out: % Inh (13 μM) of S. pneumoniae Topoisomerase IV ATPase.
S. pneumoniae Topoisomerase IV ATPase (ParE), sequence (Q59961 whole entry): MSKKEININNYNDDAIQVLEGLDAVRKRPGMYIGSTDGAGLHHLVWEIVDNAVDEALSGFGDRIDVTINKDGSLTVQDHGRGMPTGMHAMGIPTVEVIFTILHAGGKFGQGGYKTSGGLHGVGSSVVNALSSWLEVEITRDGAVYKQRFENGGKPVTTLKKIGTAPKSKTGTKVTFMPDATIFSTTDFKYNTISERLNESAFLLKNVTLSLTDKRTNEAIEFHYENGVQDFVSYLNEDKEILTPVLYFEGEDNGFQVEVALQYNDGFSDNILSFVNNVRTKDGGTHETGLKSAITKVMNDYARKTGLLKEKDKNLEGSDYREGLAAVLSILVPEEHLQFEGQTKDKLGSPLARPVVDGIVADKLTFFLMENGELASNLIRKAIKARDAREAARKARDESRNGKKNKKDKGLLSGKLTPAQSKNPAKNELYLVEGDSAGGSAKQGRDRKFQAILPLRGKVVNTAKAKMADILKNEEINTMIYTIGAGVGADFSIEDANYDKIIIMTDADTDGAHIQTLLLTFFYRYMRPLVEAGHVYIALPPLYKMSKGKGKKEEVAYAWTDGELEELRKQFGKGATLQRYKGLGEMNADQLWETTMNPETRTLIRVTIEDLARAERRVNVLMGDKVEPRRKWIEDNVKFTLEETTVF
Type: biochemical
In short: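 Phosphate release by ParE ATPase from S. pneumoniae read colorimetrically (malachite green, 650 nm), enzyme 1.25 nM, ATP 160 μM, salmon sperm DNA present, buffer 20 mM Tris pH 8.0 with 8 mM MgCl2. IC50 over 10 compound concentrations, EDTA (20 μM) and DMSO controls defining inhibition range.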
With `Cc1cc(C(F)(F)F)nn1-c1nc(Nc2ccc(F)c(Cl)c2)ncc1-c1cnc(OC(C)C)c(C(=O)O)c1` [Example 960, 5-(2-(3-chloro-4-fluorophenylamino)-4-(5-methyl-3-(trifluoromethyl)-1H-pyrazol-1-yl)pyrimidin-5-yl)-2-isopropoxynicotinic acid] the inhibition at 13 µM was 100%. `O=S1(=O)CCN(CCCNc2nc(Nc3ccc(F)c(Cl)c3)ncc2-c2cncnc2)CC1` [Example 48, N^2-(3-chloro-4-fluorophenyl)-N^4-[3-(1,1-dioxo-1,4-thiazinan-4-yl)propyl]-5-pyrimidin-5-ylpyrimidine-2,4-diamine] was tested, and the inhibition at 13 µM was 79.8%. With `Cc1cc(Nc2ncc(-c3cncc(C(=O)O)c3)c(N3CCOCC3)n2)ccc1F` [Example 438] the inhibition at 13 µM was 81%. Work on `COCCCNc1nc(Nc2ccc(F)c(Cl)c2)ncc1-c1nc(-c2ccccc2)c(C(=O)O)s1` [Example 510, 2-{2-[(3-chloro-4-fluorophenyl)amino]-4-[(3-methoxypropyl)amino]pyrimidin-5-yl}-4-phenyl-1,3-thiazole-5-carboxylic acid] yielded an inhibition at 13 µM of 97%. For `CNC(=O)c1cc(-c2cnc(Nc3cc(OC)cc(OC)c3)nc2-n2nc(C(F)(F)F)cc2C)cnc1OC` [Example 808, 5-{2-[(3,5-dimethoxyphenyl)amino]-4-[5-methyl-3-(trifluoromethyl)-1H-pyrazol-1-yl]pyrimidin-5-yl}-2-methoxy-N-methylpyridine-3-carboxamide], the inhibition at 13 µM was 100%. `COc1cc(Cl)cc(Nc2ncc(-c3cncc(C(=O)O)c3)c(-n3nc(C(F)(F)F)cc3C)n2)c1` [Example 775, 5-{2-[(3-chloro-5-methoxyphenyl)-amino]-4-[5-methyl-3-(trifluoromethyl)-1H-pyrazol-1-yl]pyrimidin-5-yl}pyridine-3-carboxylic acid] showed an inhibition at 13 µM of 100%. With `Cc1cc(C(F)(F)F)nn1-c1nc(Nc2cc(F)cc(C#N)c2)ncc1-c1cccc(/C=C/C(=O)O)c1` [Example 1116, (E)-3-(3-(2-(3-cyano-5-fluorophenylamino)-4-(5-methyl-3-(trifluoromethyl)-1H-pyrazol-1-yl)pyrimidin-5-yl)phenyl)acrylic acid] the inhibition at 13 µM was 97%. For `Cc1cc(C(F)(F)F)nn1-c1nc(Nc2ccc(F)c(Cl)c2)ncc1-c1cncc(C(=O)NCCO)c1` [Example 927, 5-(2-(3-chloro-4-fluorophenylamino)-4-(5-methyl-3-(trifluoromethyl)-1H-pyrazol-1-yl)pyrimidin-5-yl)-N-(2-hydroxyethyl)nicotinamide], the inhibition at 13 µM was 98%. With `CN(C)CCCNc1nc(Nc2ccc(F)c(Cl)c2)ncc1-c1ccc(C(=O)N(C)C)cc1` [Example 364, 4-(2-(3-chloro-4-fluorophenylamino)-4-(3-(dimethylamino)propylamino)pyrimidin-5-yl)-N,N-dimethylbenzamide] the inhibition at 13 µM was 112%. `COc1cc(Nc2ncc(-c3cc(C(=O)O)cn(C)c3=O)c(-n3ccc(C(F)(F)F)n3)n2)cc(OC)c1` [Example 592, 5-(2-(3,5-dimethoxyphenylamino)-4-(3-(trifluoromethyl)-1H-pyrazol-1-yl)pyrimidin-5-yl)-1-methyl-6-oxo-1,6-dihydropyridine-3-carboxylic acid] was tested, and the inhibition at 13 µM was 100%. With `CC(=O)c1cccc(Nc2ncc(-c3cccc(/C=C/C(=O)O)c3)c(-n3ccc(C(F)(F)F)n3)n2)c1` [Example 688, (2E)-3-(3-{2-[(3-acetylphenyl)amino]-4-[3-(trifluoromethyl)-1H-pyrazol-1-yl]pyrimidin-5-yl}phenyl)prop-2-enoic acid] the inhibition at 13 µM was 99%. `O=C(O)/C=C/c1cccc(-c2cnc(Nc3ccc(F)c(Cl)c3)nc2NCCn2cccn2)c1` [Example 267, (2E)-3-[3-(2-[(3-chloro-4-fluorophenyl)amino]-4-{[2-(1H-pyrazol-1-yl)ethyl]amino}pyrimidin-5-yl)phenyl]prop-2-enoic acid] was tested, and the inhibition at 13 µM was 87.3%. Compound `Cc1cccc(Nc2ncc(-c3cncc(C(=O)O)c3)c(-n3nc(C(F)(F)F)cc3C)n2)c1` [Example 711, 5-{2-[(3-methylphenyl)amino]-4-[5-methyl-3-(trifluoromethyl)-1H-pyrazol-1-yl]pyrimidin-5-yl}pyridine-3-carboxylic acid] has an inhibition at 13 µM of 100%. For `COc1cccc(Nc2ncc(-c3cccc(/C=C/C(=O)O)c3)c(N3CCOCC3)n2)c1` [Example 451], the inhibition at 13 µM was 70%. For `COCC(COC)Oc1ncc(-c2cnc(Nc3ccc(F)c(Cl)c3)nc2-n2ccc(C(F)(F)F)n2)cc1C(=O)O` [Example 869, 5-(2-(3-chloro-4-fluorophenylamino)-4-(3-(trifluoromethyl)-1H-pyrazol-1-yl)pyrimidin-5-yl)-2-(1,3-dimethoxypropan-2-yloxy)nicotinic acid], the inhibition at 13 µM was 93%. With `CN(C)CCCNc1nc(Nc2ccc(F)c(Cl)c2)ncc1-c1ccc(C(=O)NCc2ccccc2)cc1` [Example 365, N-benzyl-4-(2-(3-chloro-4-fluorophenylamino)-4-(3-(dimethylamino)propylamino)pyrimidin-5-yl) benzamide] the inhibition at 13 µM was 110%. In the case of `CCOC(=O)c1cncc(-c2cnc(Nc3ccc(F)c(Cl)c3)nc2NCCN(C)C)c1` [Example 93], the inhibition at 13 µM is reported as 79.6%. `Cc1cc(C(F)(F)F)nn1-c1nc(Nc2ccc(F)c(Cl)c2)ncc1-c1cnc(NCCN2CCOCC2)c(C(=O)O)c1` [Example 1078, 5-(2-(3-Chloro-4-fluorophenylamino)-4-(5-methyl-3-(trifluoromethyl)-1H-pyrazol-1-yl)pyrimidin-5-yl)-2-(2-morpholinoethylamino)nicotinic acid] showed an inhibition at 13 µM of 100%. For `COc1cc(Nc2ncc(-c3cnc(OCCCS(C)(=O)=O)c(C(=O)O)c3)c(-n3nc(C(F)(F)F)cc3C)n2)cc(OC)c1` [Example 967, 5-(2-(3,5-dimethoxyphenylamino)-4-(5-methyl-3-(trifluoromethyl)-1H-pyrazol-1-yl)pyrimidin-5-yl)-2-(3-(methylsulfonyl)propoxy)nicotinic acid], the inhibition at 13 µM was 100%. Compound `CONC(=O)c1cncc(-c2cnc(Nc3ccc(F)c(Cl)c3)nc2-n2nc(C(F)(F)F)cc2C)c1` [Example 933, 5-(2-(3-chloro-4-fluorophenylamino)-4-(5-methyl-3-(trifluoromethyl)-1H-pyrazol-1-yl)pyrimidin-5-yl)-N-methoxynicotinamide] has an inhibition at 13 µM of 100%. `O=C(O)c1cncc(-c2cnc(Nc3ccc(F)c(Cl)c3)nc2N2CCCC(CO)C2)c1` (stereo not shown) [Example 245, 5-[2-[(3-chloro-4-fluorophenyl)amino]-4-[3-(hydroxymethyl)piper-idin-1-yl]pyrimidin-5-yl]pyridine-3-carboxylic acid] was tested, and the inhibition at 13 µM was 83.1%. In the case of `CN(CC(=O)O)c1cccc(-c2cnc(Nc3ccc(F)c(Cl)c3)nc2-n2ccc(C(F)(F)F)n2)c1` [Example 598, N-(3-{2-[(3-chloro-4-fluorophenyl)amino]-4-[3-(trifluoromethyl)-1H-pyrazol-1-yl]pyrimidin-5-yl}phenyl)-N-methylglycine], the inhibition at 13 µM is reported as 82%. Compound `COc1ncc(-c2cnc(Nc3cc(C)cc(C)c3)nc2-n2ccc(C(F)(F)F)n2)cc1C(=O)O` [Example 648, 5-{2-[(3,5-dimethylphenyl)amino]-4-[3-(trifluoromethyl)-1H-pyrazol-1-yl]pyrimidin-5-yl}-2-methoxypyridine-3-carboxylic acid] has an inhibition at 13 µM of 100%. `O=C(O)/C=C/c1cccc(-c2cnc(Nc3ccc(F)c(Cl)c3)nc2-n2cc(Cl)cn2)c1` [Example 313, (2E)-3-(3-{2-[(3-chloro-4-fluorophenyl)amino]-4-(4-chloro-1H-pyrazol-1-yl)pyrimidin-5-yl}phenyl)prop-2-enoic acid] showed an inhibition at 13 µM of 80.3%. With `COc1cc(Nc2ncc(-c3cncnc3)c(NCCCN(C)C)n2)cc(OC)c1` [Example 344, N^2-(3,5-dimethoxyphenyl)-N^4-(3-(dimethylamino)propyl)-5,5′-bi pyrimidin-2,4-diamine] the inhibition at 13 µM was 82%. `NC(=O)c1cncc(-c2cnc(Nc3ccc(F)c(Cl)c3)nc2-n2ccc(-c3ccsc3)n2)c1` [Example 540, 5-{2-[(3-chloro-4-fluorophenyl)amino]-4-[3-(thiophen-3-yl)-1H-pyrazol-1-yl]pyrimidin-5-yl}pyridine-3-carboxamide] gave an inhibition at 13 µM of 100%. Work on `O=C(O)c1cncc(-c2cnc(Nc3ccc(F)c(Cl)c3)nc2NCCc2ccccn2)c1` [Example 228, 5-[2-(3-Chloro-4-fluoro-phenylamino)-4-(2-pyridin-2-yl-ethylamino)-pyrimidin-5-yl]-nicotinic acid] yielded an inhibition at 13 µM of 78.5%. In the case of `COc1cc(Nc2ncc(-c3cnc(OC)c(C(=O)NS(=O)(=O)c4c(C)noc4C)c3)c(-n3nc(C(F)(F)F)cc3C)n2)cc(OC)c1` [Example 836, 5-{2-[(3,5-dimethoxyphenyl)amino]-4-[5-methyl-3-(trifluoromethyl)-1H-pyrazol-1-yl]pyrimidin-5-yl}-N-[(3,5-dimethyl-1,2-oxazol-4-yl)sulfonyl]-2-methoxypyridine-3-carboxamide], the inhibition at 13 µM is reported as 94%. `O=C(O)Cn1cc(-c2cnc(Nc3ccc(F)c(Cl)c3)nc2N2CCOCC2)cn1` [Example 485, (4-{2-[(3-chloro-4-fluorophenyl)amino]-4-(morpholin-4-yl)pyrimidin-5-yl}-1H-pyrazol-1-yl)acetic acid] showed an inhibition at 13 µM of 85%. Work on `COc1cc(C#N)cc(Nc2ncc(-c3cnc(OC)c(C(=O)O)c3)c(-n3ccc(C(F)(F)F)n3)n2)c1` [Example 736, 5-{2-[(3-cyano-5-methoxyphenyl)amino]-4-[3-(trifluoromethyl)-1H-pyrazol-1-yl]pyrimidin-5-yl}-2-methoxypyridine-3-carboxylic acid] yielded an inhibition at 13 µM of 100%. `COc1cc(Nc2ncc(-c3cnc(OC)nc3)c(-n3nc(C(F)(F)F)cc3C)n2)cc(C(F)(F)F)c1` [Example 885, 2′-methoxy-N-(3-methoxy-5-(trifluoromethyl)phenyl)-4-(5-methyl-3-(trifluoromethyl)-1H-pyrazol-1-yl)-5,5′-bipyrimidin-2-amine] gave an inhibition at 13 µM of 100%.
